According to article PMC11396839, “Structure-Aided Computational Design of Triazole-Based Targeted Covalent Inhibitors of Cruzipain” (Molecules, 2024):
Where “and” joins values, the source holds several entries; their conditions need not be identical. Equal values may be shown once. Read-outs that look alike come from different tables or passages of the source.

Key:
[1] = target: T1, recombinant CZP (cruzain) (Trypanosoma cruzi, UniProt P25779); test: CZP inhibition, cleavage of fluorogenic substrate Z-FR-AMC (initial screening and IC50); format: biochemical, T. cruzi
T1 construct: gift of Allison Doak and Prof; Brian Shoichet (University of California San Francisco)
Procedure: The previously reported methods were followed to evaluate the in vitro activity against CZP [91, 92, 93, 94]. Allison Doak and Prof. Brian Shoichet (University of California San Francisco, San Francisco, CA, USA) generously provided recombinant CZP (cruzain). The enzyme activity was measured by monitoring the cleavage of the fluorogenic substrate Z-FR-AMC at 25 °C. Unless stated otherwise, assays were performed using 2.5 μ M of substrate ( KM = 0.5 ± 0.1 μ M) and 0.5 nM CZP in a 0.1 M sodium acetate buffer, pH 5.5, 0.01% Triton X-100 and 2 mM β -mercaptoethanol. DMSO and 1 μ M E-64 were employed as negative and positive controls, respectively, in all assays. Fluorescence was monitored at 340/440 nm (excitation/emission) over time in a Biotec 87 Synergy 2 fluorimeter at the Multiuser Laboratory of the Biochemistry and Immunology Department (UFMG, Belo Horizonte, Brazil). All assays were performed in triplicate in two independent experiments.
Initial screening. For the initial screening against CZP, compounds at 100 μ M were tested against CZP with and without a 10min pre-incubation with the enzyme. The fluorescence was monitored for 10 min at 5 s intervals. DMSO and E-64 were employed in all assays as negative and positive controls, respectively. Initial velocities of the negative control (DMSO) were compared to those in the presence of compounds to calculate the percentage of inhibition. The reported values correspond to the mean and standard error of the mean (SEM) of experiments performed in triplicate in two independent experiments.
IC50 determination. Compounds in at least eight distinct compound concentrations (400 μ M, 100 μ M, 25 μ M, 6.25 μ M, 1.5 μ M, 0.4 μ M, 0.1 μ M and 0.025 μ M) were incubated with CZP for 10 min, and once the substrate was added, the fluorescence was monitored for 10 min at 5 s intervals. IC50 curves were obtained from a non-linear fit of the inhibition values versus the logarithmic concentration of the compounds. The reported IC50 values are the mean and SEM of two independent measurements performed in triplicate.

[2] = target: T2, recombinant human cathepsin L (hCatL) (Homo sapiens, UniProt P07711); test: hCatL screening, cleavage of Z-FR-AMC; format: biochemical; settings: for selectivity for CZP over hCatL in words: 100 μM; for inhibition at 100 µM: 10 min incubation, read-out: % hCatL inhib.
T2 construct: purchased Sigma-Aldrich
Procedure: The recombinant human cathepsin L (hCatL) (Sigma-Aldrich) was activated prior to the assays. First, 10 ng/ μ L of the enzyme was incubated in the activation buffer (50 mM MES, pH 6, 1 mM EDTA, 5mM DTT) for 30 min at 37 °C. hCatL activity was measured based on the cleavage of the fluorescent substrate Z-FR-AMC in a Biotec 87 Synergy 2 fluorimeter at the Multiuser Laboratory of the Biochemistry and Immunology Department (UFMG, Brazil). The assays were executed in 96-well round bottom black plates in 50 mM MES buffer, pH 6, containing 1 mM EDTA, 5 mM DTT, 0.001% Triton-X100, 5 pg/ μ L enzyme and 25 μ M Z-FR-AMC at 37 °C. The triazole-based derivatives were tested against hCatL, at 100 μ M, with a 10 min pre-incubation with the enzyme. The initial velocities of the DMSO control were compared to those in the presence of the compounds. Assays were executed in triplicate in two independent experiments, and enzyme activity was measured for 20 min.

[3] = tested on: T. cruzi (Tulahuen trypomastigotes overexpressing β-galactosidase) in Vero cells; test: T. cruzi inhibition assay, infection model in Vero cells, β-galactosidase activity; format: cell-based, Trypanosoma cruzi; settings: for anti-T. cruzi/cytotoxicity balance in words: 50 μM (Ald-4 20 μM)
Procedure: To perform the assay, the drug screening method reported by Buckner et al. was adapted. Vero cells were seeded at 1 × 10^4 per well on 96-well culture plates in 100 μ L MEM-5% FBS. Tulahuen trypomastigotes overexpressing the E. coli β -galactosidase protein were distributed in triplicates on the plate. After a 2 h incubation at 37 °C, the culture media were extracted and replaced with fresh MEM-5% FBS with 1 μ M, 10 μ M or 50 μ M solutions of the triazole-based inhibitors, and the plate was incubated another 72 h at 37 °C. Ninety-six hours post infection, the cell culture media were removed and cells and intracellular amastigotes were lysed in 100 μ L lysis buffer (25 mM Tris pH 8, 2 mM EDTA, 2 mM DTT, 1% Triton X-100, 10% glycerol in ultrapure MQ water) for 10 min at 37 °C. Then, 100 μ L 2× reaction buffer (200 mM sodium phosphate pH 8, 2 mM MgCl2, 100 mM 2-mercaptoethanol and 1.33 mg.mL^−1 o-nitrophenyl- β -galactoside (ONPG)) was added and the reaction was allowed to proceed until a yellow color developed (1–2 h at 37 °C). The absorbance at 420 nm was measured in a Synergy HTX multi-mode microplate reader (Biotek Instruments, Winooski, VT, USA) and normalized to the value obtained for the infection in the absence of inhibitors. To determine its IC50, Ald-6 was evaluated at nine different concentrations (0.098, 0.195, 0.39, 0.78, 1.56 3.13 6.25, 12.5 and 50.0 μ M), following the same protocol. Each infection condition and inhibitor were tested in triplicates in four independent experiments.

[4] = tested on: Vero cells; test: Cytotoxicity assay, Alamar blue; format: cell-based; settings: 50 μM, 96 h incubation
Procedure: To evaluate the viability of Vero cells, the Alamar blue method was followed. First, 10^4 Vero cells/well in 100 μ L MEM-10% FBS were seeded in 96-well culture plates. After 24 h, 50 μ M inhibitor solution was added to cell monolayers and incubated for 96 h. After incubation, resazurin solution (final concentration 10 μ g·mL^−1) was added to each well, and fluorescence was measured after 2 h in a Synergy HTX multi-mode microplate reader (Biotek Instruments, Winooski, VT, USA) using the […] filters. Each condition was tested in triplicate and in at least three independent experiments.

[5] = target: T3, CZP (Trypanosoma cruzi, UniProt P25779); test: Aggregation assays (Triton X-100 sensitivity, BSA preincubation) on CZP; format: biochemical, T. cruzi; settings: for CZP activity inhibition percentage, Triton 0% + BSA: compound at its IC50, 10-min preincubation with 4 mg/mL BSA; for CZP activity inhibition percentage, Triton 0% / CZP activity inhibition percentage, Triton 0.01% / CZP activity inhibition percentage, Triton 0.1%: compound at its IC50, 10 min preincubation
T3 construct: gift of Allison Doak and Prof; Brian Shoichet (University of California San Francisco)
Procedure: Aggregation Assays. To evaluate detergent sensitivity, CZP was pre-incubated with compounds at their IC50 for 10 min at room temperature in varying concentrations of Triton X-100 (0%, 0.1% and 0.01%). […] For comparison, the four conditions were assayed in parallel. Aggregation was excluded when the difference in inhibition percentages between the different conditions was less than 20%.

[6] = target: T3, CZP; test: Jump dilution assay on CZP; format: biochemical, T. cruzi; settings: for slope of progress curve relative to control (DMSO): 10 × IC50 with 100 × [CZP] 30 min, 100× dilution, 2 h monitoring; for mode of CZP inhibition from jump dilution: in words
Procedure: Jump dilution assay. […] Fluorescence intensities were monitored continuously for 2 h.

[7] = tested on: T. cruzi (Tulahuen trypomastigotes overexpressing β-galactosidase) in Vero cells; test: T. cruzi inhibition assay, infection model in Vero cells, β-galactosidase activity; format: cell-based, Trypanosoma cruzi; settings: 50 μM, 72 h p.i.
[8] = target: T3, CZP; test: Mechanism of CZP inhibition (Michaelis-Menten, Lineweaver-Burk); format: biochemical, T. cruzi
Procedure: Mechanism of inhibition. […] The results were calculated by nonlinear (Michaelis–Menten) and linear regression (Lineweaver–Burk plots). The effect of the inhibitor concentration on the KMapp and its Ki was evaluated by the general linear F-test.

[9] = tested on: T. cruzi; parameters: method as in PMID 18435536, PMID 9705954, PMID 20088534; settings: cited from earlier work
[10] = 100 μM, 10 min pre-incubation of the enzyme with compound, read-out: % CZP inh.
[11] = 10 min incubation with CZP, mean ± SEM of two independent experiments, read-out: IC50 (μM) against CZP
[12] = read-out: % CZP inhib. wo/inc., 100 μM, without prior incubation

T3 sequence (P25779 123-337): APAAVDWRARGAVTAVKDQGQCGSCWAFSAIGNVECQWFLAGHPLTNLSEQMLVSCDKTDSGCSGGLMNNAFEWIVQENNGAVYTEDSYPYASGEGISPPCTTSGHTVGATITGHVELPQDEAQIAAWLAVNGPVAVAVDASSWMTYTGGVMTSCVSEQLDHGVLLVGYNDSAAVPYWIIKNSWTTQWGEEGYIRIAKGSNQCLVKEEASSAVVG
T1 sequence (P25779 123-337): as above
T2 sequence (P07711 114-333): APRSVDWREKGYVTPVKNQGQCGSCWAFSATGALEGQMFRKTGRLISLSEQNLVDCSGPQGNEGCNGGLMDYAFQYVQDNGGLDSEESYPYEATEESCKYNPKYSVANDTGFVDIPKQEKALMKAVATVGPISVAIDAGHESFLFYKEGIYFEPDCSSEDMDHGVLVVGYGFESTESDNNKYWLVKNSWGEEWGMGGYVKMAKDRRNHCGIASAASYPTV

Structure (SMILES)	inhibition at 100 µM [1, 10] [%]	IC50 [1, 11] [µM]	inhibition at 100 µM [1, 12] [%]	selectivity for CZP over hCatL in words [2]	inhibition at 100 µM [2] [%]	anti-T. cruzi/cytotoxicity balance in words [3]	cytotoxicity, uninfected Vero cell viability in words [4]	CZP activity inhibition percentage, Triton 0% + BSA [5] [%]	CZP activity inhibition percentage, Triton 0% [5] [%]	CZP activity inhibition percentage, Triton 0.01% [5] [%]	CZP activity inhibition percentage, Triton 0.1% [5] [%]	slope of progress curve relative to control (DMSO) [6]	mode of CZP inhibition from jump dilution [6]	reduction of infection [7] [%]	IC50 [9]	further results
NCCCCC(C=O)n1cc(C(NCc2ccc3c(c2)OCO3)C2CCCCC2)nn1 (stereo not drawn) [Ald-6]	81 ± 2	3.3 ± 0.3	18 ± 3	selective CZP inhibitors	26 ± 5	acceptable anti-T. cruzi/cytotoxicity balance	low cytotoxicity	37± 3	43± 5	31± 3	44± 4	about 12%	covalent irreversible inhibition	97	–	reduction in T. cruzi infection ([3]; 1 μM): 27%; parasite survival ([3]; 10 μM, after 72 h of incubation): 7%; IC50 ([3]; Trypanosoma cruzi, TULAHUEN, Vero, read-out: IC50^Tc): 3.2 ± 0.4 µM; IC50^Tc/IC50^CZP ratio ([3]; translation ratio): 0.97 ± 0.16
O=CC(CO)n1cc(C(NCc2ccc3c(c2)OCO3)C2CCCCC2)nn1 (stereo not drawn) [Ald-10]	87 ± 1	–	21 ± 1	selective CZP inhibitors	7 ± 2	acceptable anti-T. cruzi/cytotoxicity balance	low cytotoxicity	43± 2	47± 6	43± 2	46± 8	~24%	covalent irreversible inhibition	97	–	IC50 [1]: 3.4 ± 0.5 µM; reduction of T. cruzi viability ([3]; 10 μM): 38%
COC(=O)C(CS)n1cc(C(NCc2ccc3c(c2)OCO3)C2CCCCC2)nn1 (stereo not drawn) [Es-14]	≥ 47	–	–	selective CZP inhibitors	0	–	significantly reduced cell viability	–	–	–	–	–	–	–	–	–
COC(=O)C(CCCNC(=N)N)n1cc(C(NCc2ccc3c(c2)OCO3)C2CCCCC2)nn1 (stereo not drawn) [Es-15]	–	6.8 ± 0.3	–	selective CZP inhibitors	26 ± 16	acceptable anti-T. cruzi/cytotoxicity balance	–	40± 3	44± 5	41± 1	36± 7	–	–	–	–	inhibition at 100 µM ([1]; 100 μM, without prior incubation, read-out: % CZP inhib. wo/inc.): 81 ± 2%; Ki ([8]; calculated, general linear F-test p = 0.0127): 3 ± 1 µM; mechanism of CZP inhibition ([8]; in words): mixed mechanism of inhibition; α value ([8]; mixed-model fit of Michaelis-Menten data): 8.3
CN1CCN(C(=O)N[C@@H](Cc2ccccc2)C(=O)N[C@H](/C=C/S(=O)(=O)c2ccccc2)CCc2ccccc2)CC1 [K777]	–	–	–	–	–	–	–	–	–	–	–	–	–	–	~10 µM and 10 µM	–
CCCCC(C(=O)COc1c(F)c(F)cc(F)c1F)n1cc([C@@](C)(NCc2ccc3ncccc3c2)C(C)C)nn1 (stereo partly drawn) [Ts-370]	–	–	–	–	–	–	–	–	–	–	–	–	–	–	5.1 µM	–
